The source of these data is ChEMBL document CHEMBL6114980, “Single or double lipid-modified ultra-short antimicrobial peptides for treating infections caused by resistant bacteria” (Eur J Med Chem, 2025).

Assay [1] deals with Cell membrane. The assay can be described thus: Induction of inner membrane permeabilization in Escherichia coli at 0.5 to 1 times MIC measured for 135 mins by absorbance based analysis.
For assay [2], the system named is Staphylococcus aureus. The assay can be described thus: Bactericidal activity against Staphylococcus aureus 25923 assessed as eradication of bacteria at 2 times MIC measured after 6 hrs by time-kill assay. In kind it is functional, organism-based.
The subject of assay [3] is Staphylococcus aureus. As to the kind of experiment: Induction of morphological changes in Staphylococcus aureus assessed as cell aggregation adhesion at 2 times MIC measured after 120 mins by SEM analysis. In kind it is functional, organism-based.
Assay [4] concerns Staphylococcus aureus. As to the kind of experiment: Antibacterial activity against methicillin resistant Staphylococcus aureus infected in male BALB/c mouse model of skin wound infection assessed as reduction in wound area at 2 mg/kg, ip measured after 10 days post infection relative to control. In kind it is functional. On the set-up: scale not given: the % may be the effect or the level left. Conditions: time 10 day.

The test system of assay [5] is Staphylococcus aureus. As to the kind of experiment: Antibacterial activity against methicillin resistant Staphylococcus aureus infected in male BALB/c mouse model of skin wound infection assessed as healthy development of sebaceous glands at 2 mg/kg, ip measured after 10 days post infection. It is filed as functional, organism-based. The note with it: time 10.0 day.

Assay [6] concerns Staphylococcus aureus. The assay can be described thus: Antibacterial activity against methicillin resistant Staphylococcus aureus infected in male BALB/c mouse model of skin wound infection assessed as appearance of intact structure of stratum corneum at 2 mg/kg, ip measured after 10 days post infection. It is filed as functional, organism-based. Conditions: time 10.0 day.
Assay [7] deals with Staphylococcus aureus. As to the kind of experiment: Antibacterial activity against methicillin resistant Staphylococcus aureus infected in male BALB/c mouse model of skin wound infection assessed as healthy development of hair follicles at 2 mg/kg, ip measured after 10 days post infection. It is filed as functional, organism-based. Conditions: time 10.0 day.
For assay [8], the system named is Staphylococcus aureus. As to the kind of experiment: Induction of cell membrane disruption in Staphylococcus aureus assessed as PI uptake at 2 to 4 times MIC measured after 120 mins by PI staining based flow cytometry analysis. In kind it is functional, organism-based. A general note: A flow cytometer gives signals particle by particle.
Assay [9] has as its system Klebsiella pneumoniae. As to the kind of experiment: Induction of morphological changes in Klebsiella pneumoniae assessed as cell aggregation at 2 times MIC measured after 120 mins by SEM analysis. It is filed as functional, organism-based.
Assay [10] deals with Klebsiella pneumoniae. The assay can be described thus: Induction of morphological changes in Klebsiella pneumoniae assessed as cell contraction at 2 times MIC measured after 120 mins by SEM analysis. It is filed as functional, organism-based.
Assay [11] deals with Klebsiella pneumoniae. The assay can be described thus: Induction of morphological changes in Klebsiella pneumoniae assessed as cell aggregation at 2 times MIC measured after 30 mins by SEM analysis. In kind it is functional, organism-based.
Assay [12] concerns Escherichia coli. The assay can be described thus: Induction of cell membrane disruption in Escherichia coli assessed as PI uptake at 4 times MIC measured after 120 mins by PI staining based flow cytometry analysis. In kind it is functional, organism-based.
In assay [13] the test system is Staphylococcus aureus. As to the kind of experiment: Antibacterial activity against methicillin resistant Staphylococcus aureus infected in male BALB/c mouse model of skin wound infection assessed as reduction in wound area at 2 mg/kg, ip measured after 6 to 36 hrs postinfection. Conditions: time 6-36 hrs. It is filed as functional, organism-based.
Assay [14] has as its system Klebsiella pneumoniae. As to the kind of experiment: Induction of morphological changes in Klebsiella pneumoniae assessed as cell adhesion at 2 times MIC measured after 120 mins by SEM analysis. It is filed as functional, organism-based.
Assay [15] deals with Escherichia coli. The assay can be described thus: Induction of cell membrane disruption in Escherichia coli assessed as PI uptake at 2 times MIC measured after 120 mins by PI staining based flow cytometry analysis (Rvb =<10 %). Conditions: 2 h. It is filed as functional.
The test system of assay [16] is Klebsiella pneumoniae. As to the kind of experiment: Antibacterial activity against Klebsiella pneumoniae ATCC 700603 infected in male BALB/c mouse lung infection model assessed as reduction in number of inflammatory cells at 5 mg/kg, ip measured after 6 to 36 hrs. It is filed as functional, organism-based. The note with it: time 6-36 hrs.
For assay [17], the system named is Staphylococcus aureus. As to the kind of experiment: Antibacterial activity against Staphylococcus aureus 25923 at sub-MIC concentration measured after 15 passages. In kind it is functional, organism-based.
Assay [18] has as its system Cell membrane. The assay can be described thus: Induction of cytoplasmic membrane depolarization in Staphylococcus aureus assessed as increase in fluorescence intensity at 0.5 to 4 times MIC measured for 10 mins by DiSC3-5 dye based fluorescence assay. In kind it is subcellular.
Assay [19] has as its system Cell membrane. The assay can be described thus: Induction of inner membrane permeabilization in Escherichia coli at 0.5 to 4 times MIC measured for 135 mins by absorbance based analysis.
Assay [20] has as its system Escherichia coli. The assay can be described thus: Antibacterial activity against Escherichia coli 25922 at sub-MIC concentration measured after 15 passages in presence of rifampin. It is filed as functional, organism-based.
In assay [21] the test system is Cell membrane. As to the kind of experiment: Induction of outer membrane permeabilization in Escherichia coli assessed as increase in fluorescence intensity at 0.5 times MIC measured for 10 mins by fluorescence based NPN uptake assay.
For assay [22], the system named is Klebsiella pneumoniae. As to the kind of experiment: Induction of morphological changes in Klebsiella pneumoniae assessed as cell contraction at 2 times MIC measured after 30 mins by SEM analysis. In kind it is functional, organism-based.
In the next assay the test system is Lipopolysaccharide (LPS). The assay can be described thus: Binding affinity to LPS (unknown origin) assessed as reduction in bacterial mortality at 2 times MIC preincubated with LPS for 1 hr followed by bacteria addition for 24 hrs by spectrophotometric analysis.
Assay [23] has as its system Klebsiella pneumoniae. The assay can be described thus: Induction of morphological changes in Klebsiella pneumoniae assessed as cell adhesion at 2 times MIC measured after 30 mins by SEM analysis. It is filed as functional, organism-based.
In assay [24] the test system is Staphylococcus aureus. As to the kind of experiment: Antibacterial activity against Staphylococcus aureus 25923 at sub-MIC concentration measured after 15 passages in presence of rifampin. In kind it is functional, organism-based.
In assay [25] the test system is Cell membrane. The assay can be described thus: Induction of outer membrane permeabilization in Escherichia coli assessed as increase in fluorescence intensity measured for 10 mins by fluorescence based NPN uptake assay.

The source made the active and inactive calls. The calls are words filed in the database; no cut-off is given here.

As to `CC(C)(C)CC(C)(C)c1ccc(OCCO)cc1`, the result in the assay on Cell membrane [1] was Active.
Take `CN[C@H](CC(C)C)C(=O)N[C@H]1C(=O)N[C@@H](CC(N)=O)C(=O)N[C@H]2C(=O)N[C@H]3C(=O)N[C@H](C(=O)N[C@H](C(=O)O)c4cc(O)cc(O)c4-c4cc3ccc4O)[C@H](O)c3ccc(c(Cl)c3)Oc3cc2cc(c3O[C@@H]2O[C@H](CO)[C@@H](O)[C@H](O)[C@H]2O[C@H]2C[C@](C)(N)[C@H](O)[C@H](C)O2)Oc2ccc(cc2Cl)[C@H]1O` [VANCOMYCIN]: the outcome in the assay with Staphylococcus aureus [2], in the assay with Staphylococcus aureus [3] and in the assay with Staphylococcus aureus [8] was inactive. Moreover, the Activity in the assay with Staphylococcus aureus [4] is reported as less than 20%. For the same compound, the outcome in the assay on Staphylococcus aureus [5], in the assay with Staphylococcus aureus [6] and in the assay with Staphylococcus aureus [7] was Active.
For the compound `CC(C)CCCCC(=O)N[C@@H](CCN)C(=O)N[C@H](C(=O)N[C@@H](CCN)C(=O)N[C@H]1CCNC(=O)[C@H]([C@@H](C)O)NC(=O)[C@H](CCN)NC(=O)[C@H](CCN)NC(=O)[C@H](CC(C)C)NC(=O)[C@@H](Cc2ccccc2)NC(=O)[C@@H](CCN)NC1=O)[C@@H](C)O.CC[C@H](C)CCCCC(=O)N[C@@H](CCN)C(=O)N[C@H](C(=O)N[C@@H](CCN)C(=O)N[C@H]1CCNC(=O)[C@H]([C@@H](C)O)NC(=O)[C@H](CCN)NC(=O)[C@H](CCN)NC(=O)[C@H](CC(C)C)NC(=O)[C@@H](Cc2ccccc2)NC(=O)[C@@H](CCN)NC1=O)[C@@H](C)O`, the result with Klebsiella pneumoniae [9], in the assay with Klebsiella pneumoniae [10], in the assay with Klebsiella pneumoniae [11], in the assay with Staphylococcus aureus [13], in the assay with Klebsiella pneumoniae [14] and with Escherichia coli [20] was Active. Besides, the outcome in the assay on Klebsiella pneumoniae [22], in the assay on Lipopolysaccharide (LPS), with Klebsiella pneumoniae [23] and in the assay with Staphylococcus aureus [24] was Active. Besides, the result in the assay with Escherichia coli [12], with Klebsiella pneumoniae [16] and with Staphylococcus aureus [17] was inactive. Further, the Activity in the assay on Escherichia coli [15] was greater than 20%; in the assay with Cell membrane [18], “Weak_effect”; with Cell membrane [19], “Active; Compound Showed Lower Efficacy Than Positive Control 0.1% Tritionx 100”; in the assay on Cell membrane [21], “Active; Compound Showed Slightly Inferior Activity Than Compound D8”; in the assay with Cell membrane [25], “Dose-dependent-effect”.
